Measured values published in paper PMC9317316, “Synthesis and Evaluation of Some New 4H-Pyran Derivatives as Antioxidant, Antibacterial and Anti-HCT-116 Cells of CRC, with Molecular Docking, Antiproliferative, Apoptotic and ADME Investigations” (Pharmaceuticals, 2022).
“And” between values parts separate entries of the source, which are not always exact repeats. Equal entries are not always repeated. Where two headings read alike, the source gives them in different places.

Assays:
[1] = Reducing power assay (FRAC, Fe3+ to Fe2+); conditions: 0-1 mg/mL, absorbance 700 nm
Description: Secondly, FRAC was determined over the concentration range of 0.0−1 mg/mL via monitoring Fe^3+−Fe^2+ transformation in the presence of the studied compounds and the reference antioxidant BHT to estimate the values of efficient concentration (EC50), expressed in mM.
The reducing power of the studied compounds was assessed according to Oyaizu’s method. Briefly, different concentrations (ranging from 0 to 1 mg/mL) of each tested compound were first mixed with 1 mL of 0.2 M sodium phosphate buffer (pH 6.6) and 1 mL of 1% potassium ferricyanide (K3Fe(CN)6) and incubated at 50 °C for 20 min. After the addition of 1.25 mL of 20% trichloroacetic acid (TCA), the mixture was centrifuged for 10 min at 3000 rpm and the upper layer solution was then mixed with 0.5 mL of 0.1% fresh ferric chloride and an equal volume of deionized water. Finally, the absorption of the resulting mixture was measured at 700 nm using a UV spectrophotometer against distilled water as the blank, while butylated hydroxytoluene (BHT) was used as a positive control. The sample ferric reducing power capability was indicated by increased absorbance.

[2] = tested on: HCT-116 cells; assay: Cell viability (cytotoxicity, LDH release) assay; assay type: cell-based; conditions: Homo sapiens, 24 h; for viability at 100 µg/mL: read-out: percent of viable cells
Description: The synthesized compounds were also examined at four concentrations (10, 25, 50 and 100 µg/mL) for their cytotoxic effects on human colorectal cancer HCT-116 cells after their incubation together for 24 h.
Cytotoxic potency was examined for a human colon cancer cell line HCT-116 (American Type Culture Collection; Manassas, VA, USA) using various amounts of each compound (10, 25, 50 and 100 µg). Samples were diluted in Dulbecco’s Modified Eagle’s Medium, consisting of 10% Fetal Bovine Serum, and added to cells grown and cultured for 24 h in a 5% CO2-humidified incubator at 37 °C. Then, the activity of lactate dehydrogenase released from damaged cells was determined in the collected supernatant aliquots using an ELISA endpoint assay (Benchmark Plus, Bio-Rad, Hercules, CA, USA). As positive and negative controls, respectively, 0.1% Triton X-100 in the assay medium and the assay medium only were used. Cell viability, shown as mean values ± SDs (n = 3), was expressed as a relative percentage of the OD values determined at 600 nm in compound-treated cells and the control.

[3] = tested on: S. enteric (ATCC 43972); assay: Antibacterial agar diffusion method (inhibition zone); assay type: cell-based
Description: (§1) The results for the in vitro antibacterial properties of the synthesized compounds against five Gram-positive and four Gram-negative human-pathogenic strains, which were assessed by both the agar diffusion method (based on inhibition zone (IZ)) and the broth dilution bioassay (for the determination of the half-maximal inhibitory concentration (IC50) values), using ampicillin as the reference antibiotic drug, are shown in Table 2 and Table 3.
(§2) The antibacterial activity of all synthesized compounds was evaluated against the Gram-negative strains E. coli (ATCC 25966), K. pneumonia (ATCC 700603), P. aeruginosa (ATCC 27853) and S. enteric (ATCC 43972) and against the Gram-positive strains B. cereus (ATCC 14579), B. subtilis (ATCC 6633), E. faecalis (ATCC 29122), S. aureus (ATCC 25923) and S. epidermidis (ATCC 14990), using the agar diffusion method through measuring the appearance of the inhibition zone on the surface of the top agar, as reported by Berghe and Vlietinck. Ampicillin (10 µg/well) was used as the positive reference standard. Bacterial viability was also investigated by determining the colony-forming ability (CFU) of bacteria incubated at different time intervals without or with appropriate amounts of the compound, which were mixed with 2 ×10^7 CFU/mL in sterile BHI and incubated under shaking for 60 min at 37 °C. Samples were serially diluted into sterile BHI, streaked onto media agar plates and incubated for 24 h at 37 °C. The antibacterial potency of the tested compounds was expressed as the residual number of CFUs with reference to the initial inoculums. The results presented as the half-maximal (50 %) inhibitory concentration (IC50) values are the means of three different measurements.

[4] = tested on: S. epidermidis (ATCC 14990); assay: as above; assay type: cell-based
Description: as §1, §2

[5] = tested on: P. aeruginosa (ATCC 27853); assay: as above; assay type: cell-based
Description: as §1, §2

[6] = tested on: E. coli (ATCC 25966); assay: as above; assay type: cell-based; conditions: E. coil (ATCC 25966)
Description: as §1, §2

[7] = tested on: B. subtilis (ATCC 6633); assay: as above; assay type: cell-based
Description: as §1, §2

[8] = tested on: E. faecalis (ATCC 29122); assay: as above; assay type: cell-based
Description: as §1, §2

[9] = tested on: B. cereus (ATCC 14579); assay: as above; assay type: cell-based
Description: as §1, §2

[10] = tested on: K. pneumonia (ATCC 700603); assay: as above; assay type: cell-based
Description: as §1, §2

[11] = tested on: S. aureus (ATCC 25923); assay: as above; assay type: cell-based
Description: as §1, §2

[12] = tested on: S. enteric (ATCC 43972); assay: Antibacterial viability (CFU) assay, IC50; assay type: cell-based; conditions: read-out: IC50
Description: as §1, §2

[13] = tested on: S. epidermidis (ATCC 14990); assay: Antibacterial viability (CFU) assay, IC50; assay type: cell-based; conditions: Staphylococcus epidermidis, ATCC14990
Description: as §1, §2

[14] = tested on: P. aeruginosa (ATCC 27853); assay: Antibacterial viability (CFU) assay, IC50; assay type: cell-based; conditions: Pseudomonas aeruginosa, ATCC27853
Description: as §1, §2

[15] = tested on: E. coli (ATCC 25966); assay: Antibacterial viability (CFU) assay, IC50; assay type: cell-based; conditions: Escherichia coli, ATCC25966; E. coil (ATCC 25966)
Description: as §1, §2

[16] = tested on: B. subtilis (ATCC 6633); assay: Antibacterial viability (CFU) assay, IC50; assay type: cell-based
Description: as §1, §2

[17] = tested on: E. faecalis (ATCC 29122); assay: Antibacterial viability (CFU) assay, IC50; assay type: cell-based; conditions: Enterococcus faecalis, ATCC29122
Description: as §1, §2

[18] = tested on: B. cereus (ATCC 14579); assay: Antibacterial viability (CFU) assay, IC50; assay type: cell-based; conditions: Bacillus cereus, ATCC14579
Description: as §1, §2

[19] = tested on: K. pneumonia (ATCC 700603); assay: Antibacterial viability (CFU) assay, IC50; assay type: cell-based; conditions: Klebsiella pneumoniae, ATCC700603
Description: as §1, §2

[20] = tested on: S. aureus (ATCC 25923); assay: Antibacterial viability (CFU) assay, IC50; assay type: cell-based; conditions: Staphylococcus aureus, ATCC25923
Description: as §1, §2

[21] = DPPH radical scavenging assay; conditions: for IC50: 0.03 to 1 mg/mL, 1 h, mean ± SD, triplicate, read-out: IC50 (mM) for DPPH Scavenging Potency
Description: The IC50 values for DPPH were calculated from the plot of the scavenging effect against the compound concentration.
The compounds’ capacities to scavenge the stable radical 1,1 diphenyl-2-picrylhydrazyl (DPPH) formed in solution by donation of a hydrogen atom or an electron was investigated according to the method described by Bersuder and coworkers. Due to the fact that the initial blue/purple solution of diphenyl picrylhydrazine changes to yellow in the presence of compounds with a capacity to scavenge DPPH free radicals, this reaction is used as a measure of a compound’s ability to scavenge any free radical. Briefly, a 0.5 mL volume of DPPH ethanolic solution was mixed with an equal volume of each sample concentration (0.03 to 1 mg/mL), shaken strongly and incubated at room temperature for 1 h in darkness. The absorbance of the residual DPPH radicals was measured at 519 nm and compared to that of the control (without the tested compound). DPPH radical scavenging was calculated using the following formula: Scavenging effect (%) = (1 − Acompound/AControl) × 100, where Acompound and Acontrol are the absorbances of the tested compound and of the control, respectively. A plot of the scavenging effect (%) versus the sample concentration was also performed to determine the compound concentration providing 50% inhibition (IC50).

[22] = read-out: Mean IC50 (µM) of cytotoxicity
[23] = read-out: Mean IC50 (µg/mL) of cytotoxicity
[24] = Bacillus subtilis, ATCC6633, B. subtilis (ATCC 6633)

| SMILES | EC50 [1] | melting point | viability at 100 µg/mL [2] | IC50 [2, 22] | IC50 [2, 23] | IZ (mm) [3] | IZ (mm) [4] | IZ (mm) [5] | IZ (mm) [6] | IZ (mm) [7] | IZ (mm) [8] | IZ (mm) [9] | IZ (mm) [10] | IZ (mm) [11] | IC50 [12] | IC50 [13] | IC50 [14] | IC50 [15] | IC50 [16, 24] | IC50 [17] | also measured |
| --- | --- | --- | --- | --- | --- | --- | --- | --- | --- | --- | --- | --- | --- | --- | --- | --- | --- | --- | --- | --- | --- |
| CC1=C(C(=O)OCc2ccccc2)C(c2ccc(Cl)cc2Cl)C(C#N)=C(N)O1 (stereo not shown) [4m, 6-Amino-5-cyano-4-(2,4-dichloro-phenyl)-2-methyl-4H-pyran-3-carboxylic acid benzyl ester] | 506 ± 34 µM | 146 to 148 °C | 11 to 32.5% | 89.3 ± 5.05 µM | 37.1 ± 2.1 µg/mL | 8.5 ± 0.7 mm | 18.50 ± 0.71 mm | 9.5 ± 0.7 mm | 5.5 ± 0.71 mm | 21.50 ± 0.71 mm | 20.50 ± 0.71 mm | 18.50 ± 0.71 mm | 6.5 ± 0.7 mm | 17.50 mm and 17.50 ± 0.71 mm | 61.8 ± 2.17 µM | 35 ± 1.88 µM | 60.9 ± 2.17 µM | 69.4 ± 2.89 µM | 23.6 to 36.8 µM | 35.3 ± 2.22 µM | IC50 ([16]; B. subtilis (ATCC 6633)): 32.8 ± 2.05 µM; IC50 [18]: 35.8 ± 1.2 µM; IC50 [19]: 66.7 ± 2.41 µM; IC50 [20]: 33.2 ± 1.01 µM; IC50 [21]: 0.421 ± 0.017 mM; DPPH Radical Scavenging Effenciency (%) at 1 mg/mL [21]: 69.00% and 69.0 ± 2.83% |
| CCOC(=O)C1=C(C)OC(N)=C(C#N)C1c1cccc(-c2ccccc2)c1 (stereo not shown) [4e, 6-Amino-4-biphenyl-3-yl-5-cyano-2-methyl-4H-pyran-3-carboxylic acid ethyl ester] | 305 ± 39 µM | 186 to 190 °C | 11 to 32.5% | 138 ± 9.78 µM | 49.7 ± 3.53 µg/mL | 3.5 ± 0.7 mm | 20.50 mm and 20.50 ± 2.12 mm | 4.5 ± 0.7 mm | 2.7 ± 0.35 mm | 20.50 ± 0.71 mm | 15.50 ± 0.71 mm | 23.00 ± 1.41 mm | 2.5 ± 0.7 mm | 16.50 ± 2.10 mm | 96.1 ± 2.5 µM | 30.8 ± 1.58 µM | 88 ± 2.78 µM | 103 ± 3.05 µM | 37.7 ± 1.58 µM | 37.3 ± 2.16 µM | IC50 [18]: 33.6 ± 1.58 µM; IC50 [19]: 90.7 ± 2.78 µM; IC50 [20]: 34.8 ± 2.16 µM; IC50 [21]: 1.65 ± 0.097 mM; DPPH Radical Scavenging Effenciency (%) at 1 mg/mL [21]: 39.25 ± 1.06% |
| COc1cc(OC)c(C2C(C#N)=C(N)Oc3n[nH]c(C)c32)c(OC)c1 (stereo not shown) [5b, 6-Amino-3-methyl-4-(2,4,6-trimethoxy-phenyl)-2,4-dihydro-pyrano[2,3-c]pyrazole-5-carbonitrile] | 467 ± 41 µM | 182 to 184 °C | 11 to 32.5% | 97.9 ± 7.06 µM | 33.5 ± 2.42 µg/mL | 7.5 ± 0.7 mm | 6.60 mm and 6.60 ± 0.57 mm | 6.5 ± 0.7 mm | 3.5 ± 0.71 mm | 8.50 ± 0.71 mm | 9.75 ± 1.06 mm | 8.00 ± 1.41 mm | 4.5 ± 0.7 mm | 5.50 ± 0.71 mm | 106 ± 2.92 µM | 50.1 ± 0.61 µM | 92.3 ± 1.46 µM | 117 ± 4.09 µM | 41.8 ± 1.23 µM | 45.1 ± 1.87 µM | IC50 [18]: 42.6 ± 1.66 µM; IC50 [19]: 110 ± 1.75 µM; IC50 [20]: 39.1 ± 1.66 µM; IC50 [21]: 1.78 ± 0.082 mM; DPPH Radical Scavenging Effenciency (%) at 1 mg/mL [21]: 37.50 ± 2.12% |
